The subject of the assay is MIA-induced OA rats. As to the kind of experiment: Analgesic action to MIA-induced osteoarthritis model rats (von Frey test, 50% reaction threshold to mechanical stimulus). The assay is classed as in vivo, rat (male Wistar). Conditions: Rattus norvegicus, ip, single intraperitoneal dose of 200 μg/kg, von Frey test after 1 hour from administration, normal threshold value 15, read-out: Recovery rate of 50% reaction threshold value (%). The protocol: Pharmacological Test I: Analgesic Action to Osteoarthritis Model Rats
There were conducted the following experiments for testing the analgesic action of the analgesic of the present invention using the osteoarthritis (OA) rats induced by sodium monoiodoacetate (MIA) which were model animals for OA.
(1) Preparation of MIA-Induced OA Rats
A 50% reaction threshold value to the mechanical stimulus of male Wistar rats of six weeks age was measured (the measuring method will be mentioned later) and a normal control group was selected. MIA prepared by saline was administered in a single dose of 300 μg/50 μL into right knee joint of the rats except the normal control group while 50 μL of saline was administered into left knee joint whereupon the MIA-induced OA rats were prepared. To the normal control group, 50 μL of saline was administered into the joints of both knees.
With regard to the male Wistar rats of six weeks age used as experimental animals except the normal control group, their 50% reaction threshold values to the mechanical stimulus (the measuring method will be mentioned later) and body weights were measured after […] from the administration of MIA mentioned in (1) and then 3 groups each comprising six rats [a normal control group, an onset control group and a test drug-administered group] were organized.
(3) Administration of Test Drug
A test drug solution (100 μg/mL) using the compound according to the analgesic of the present invention as a test drug was prepared using a phosphate buffered saline (PBS) containing 0.1 vol % of dimethyl sulfoxide (DMSO).
Immediately after the grouping (after 14 days from the administration of MIA), a test drug solution was intraperitoneally administered in a single dose of 200 μg/kg to a test drug-administered group. Meanwhile, to the normal control group and the onset control group, PBS containing 0.1 vol % of DMSO was intraperitoneally administered in a single dose.
(4) Result of Measurement of the 50% Reaction Threshold Values to the Mechanical Stimulus (Von Frey Test)
The three groups of rats of the above (2) were placed in a transparent acrylic cage with a wire-meshed floor and habituated for about three minutes and the 50% reaction threshold values to the mechanical stimulus were measured after 1 hour from the administration of a test drug. The measurement was conducted using von Frey filaments (manufactured by North Coast Medical Inc.) in accordance with the methods of Chaplan, et al. (Journal of Neuroscience Methods, vol. 53, no. 1, pages 55 to 63, 1994) and Dixon, et al. (Annual Review of Pharmacology and Toxicology, vol. 20, pages 441 to 462, 1980). […] The case where the rat escaped at the instance of removing the filament was also called positive. When the positive reaction was noted, stimulus was conducted similarly using a filament of one rank weaker while, when no reaction was noted, stimulus was conducted similarly using a filament of one rank stronger and the point when the reaction changed from negative to positive or from positive to negative was called the first two reactions. After that, stimulus was conducted for continuous four times by the same up-down method. A 50% reaction threshold value to the mechanical stimulus was measured using the reaction to the six stimuli in total and then (mean value)±(standard error) for each group was calculated. Incidentally, when stimulus reached by that of 15.0 g without positive reaction or, when positive reaction continued to 0.4 g, then 15.0 g or 0.25 g was adopted as each threshold value, respectively.
With regard to the 50% reaction threshold value after 1 hour from administration of a test drug, a recovery rate (%) of the 50% reaction threshold value was calculated by the following expression in which 15 was adopted as the normal threshold value. […]

In the case of `CCCCCCC/C=C/C(=O)OCCN(C)C` [Compound 1, (E)-2-(dimethylamino)ethyl dec-2-enoate], the inhibition in vivo at 0.2 mg/kg was 25.5%.
Regarding `CCCCCCC/C=C/C(=O)OCCSC(C)C` [Compound 8, (E)-2-(isopropylthio)ethyl dec-2-enoate], the inhibition in vivo at 0.2 mg/kg was determined as 28.9%.
In the case of `CCCCCCC/C=C/C(=O)OCCOC` [Compound 9, (E)-2-methoxyethyl dec-2-enoate] it was 13%; in that of `CCCCCCC/C=C/C(=O)NCC(C)C` [Compound 18, (E)-N-isobutyl dec-2-enamide], 49%; in that of `CCCCCCC/C=C/C(=O)NCCCCCC` [Compound 22, (E)-N-hexyl dec-2-enamide], 44.3%.
As for `CCCCCCC/C=C/C(=O)NC1CCCCC1` [Compound 27, (E)-N-cyclohexyl dec-2-enamide], the inhibition in vivo at 0.2 mg/kg is 5.8%.
On to `CCCCCCC/C=C/C(=O)NCCN(CC)CC` [Compound 37 (Citrate), (E)-N-2-(diethylamino)ethyl dec-2-enamide], for which the inhibition in vivo at 0.2 mg/kg amounted to 45.1%.
In the case of `CCCCCCC/C=C/C(=O)N(CC)CCN(CC)CC` [Compound 44 (Citrate), (E)-N-(2-(diethylamino)ethyl)-N-ethyl dec-2-enamide] it was 21.7%.
For the compound `CCCCCCC/C=C/C(=O)N(CCN(C)C)CCN(C)C` [Compound 45, (E)-N,N-bis(2-(dimethylamino)ethyl) dec-2-enamide], the inhibition in vivo at 0.2 mg/kg came to 10.2%.
As for `CCCCCCC/C=C/C(=O)SCCCCCC` [Compound 50, (E)-S-hexyl dec-2-enethioate], the inhibition in vivo at 0.2 mg/kg was found to be 15.6%.
With `CCCCCCC/C=C/C(=O)SCCN(CC)CC` [Compound 56, (E)-S-2-(diethylamino)ethyl dec-2-enethioate], the inhibition in vivo at 0.2 mg/kg worked out at 21.8%.

For the origin of these results see patent US20150297562A1, “ANALGESIC” (NIPPON ZOKI PHARMACEUTICAL CO., LTD., priority 2012, published 2015).
